In PubChem BioAssay (NCI):
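Each compound was tested at five concentrations against cells in 96-well plates for 48 hours. Abbreviation: GI50, concentration required for 50% inhibition of growth. Definition used: TGI = concentration required for complete inhibition of growth.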

Assays:
Test in all cases: growth of human tumour cells (NCI), 48 h
[1] = system: M14 melanoma
[2] = system: TK-10 renal
[3] = system: HOP-62 NSCLC
[4] = system: U251 CNS
[5] = system: RPMI-8226 leukemia
[6] = system: BT-549 breast
[7] = system: SN12C renal
[8] = system: OVCAR-4 ovarian
[9] = system: EKVX NSCLC
[10] = system: HOP-92 NSCLC
[11] = system: HCC-2998 colon
[12] = system: MDA-MB-435
[13] = system: PC-3 prostate
[14] = system: ACHN renal
[15] = system: SNB-19 CNS
[16] = system: MDA-MB-231 breast
[17] = system: CCRF-CEM leukemia
[18] = system: HT29 colon
[19] = system: T-47D breast
[20] = system: NCI-H522 lung
[21] = system: OVCAR-3 ovarian
[22] = system: SW-620 colon
[23] = system: 786-0 renal
[24] = system: NCI-H226 lung
[25] = system: UACC-257 melanoma
[26] = system: SK-MEL-2 melanoma
[27] = system: KM12 colon
[28] = system: SF-268 CNS
[29] = system: MCF7 breast
[30] = system: MALME-3M melanoma
[31] = system: RXF 393 renal
[32] = system: MOLT-4 leukemia
[33] = system: NCI/ADR-RES ovarian
[34] = system: SF-539 CNS
[35] = system: A498 renal
[36] = system: LOX IMVI melanoma
[37] = system: HS 578T breast
[38] = system: SK-MEL-28 melanoma
[39] = system: UO-31 renal
[40] = system: UACC-62 melanoma
[41] = system: OVCAR-8 ovarian
[42] = system: CAKI-1 renal
[43] = system: HCT-15 colon
[44] = system: HCT-116 colon
[45] = system: IGROV1 ovarian
[46] = system: HL-60(TB) leukemia
[47] = system: DU-145 prostate
[48] = system: OVCAR-5 ovarian
[49] = system: SR leukemia
[50] = system: NCI-H23 lung
[51] = system: NCI-H460 lung
[52] = system: SK-OV-3 ovarian
[53] = system: A549 NSCLC
[54] = system: K-562 leukemia
[55] = system: SK-MEL-5 melanoma
[56] = system: SF-295 CNS

## C=C(C)[C@@H]1CC[C@]2(C(=O)O)CC[C@]3(C)[C@H](CC[C@@H]4[C@@]5(C)C/C(=C/c6cccc(I)c6)C(=O)C(C)(C)[C@@H]5CC[C@]43C)[C@@H]12
[1]
  GI50: 2.14 µM
  TGI: 5.21 µM
[2]
  GI50: 3.25 µM
  TGI: 20.6 µM
[3]
  GI50: 3.24 µM
  TGI: 12.6 µM
[4]
  GI50: 1.71 µM
  TGI: 3.91 µM
[5]
  GI50: 2.07 µM
  TGI: 7.06 µM
[6]
  GI50: 2.2 µM
  TGI: 6.75 µM
[7]
  GI50: 2.93 µM
  TGI: 11.7 µM
[8]
  GI50: 2.38 µM
  TGI: 8.28 µM
[9]
  GI50: 2.65 µM
  TGI: 12.7 µM
[10]
  GI50: 1.72 µM
  TGI: 5.28 µM
[11]
  GI50: 2.69 µM
  TGI: 9.69 µM
[12]
  GI50: 2.98 µM
  TGI: 9.74 µM
[13]
  GI50: 2.2 µM
  TGI: 10.6 µM
[14]
  GI50: 2.62 µM
  TGI: 11 µM
[15]
  GI50: 3.28 µM
  TGI: 17.5 µM
[16]
  GI50: 2.83 µM
  TGI: 10 µM
[17]
  GI50: 2.74 µM
  TGI: 10.3 µM
[18]
  GI50: 2.9 µM
  TGI: 9.76 µM
[19]
  GI50: 2.9 µM
  TGI: 19 µM
[20]
  GI50: 2.1 µM
  TGI: 6.94 µM
[21]
  GI50: 1.78 µM
  TGI: 3.7 µM
[22]
  GI50: 1.95 µM
  TGI: 4.58 µM
[23]
  GI50: 2.46 µM
  TGI: 6.72 µM
[24]
  GI50: 2.64 µM
  TGI: 10.1 µM
[25]
  GI50: 2.51 µM
  TGI: 8.23 µM
[26]
  GI50: 2.4 µM
  TGI: 6.94 µM
[27]
  GI50: 1.59 µM
  TGI: 3.6 µM
[28]
  GI50: 3.17 µM
  TGI: 15.1 µM
[29]
  GI50: 2.64 µM
  TGI: 10.5 µM
[30]
  GI50: 2.46 µM
  TGI: 6.65 µM
[31]
  GI50: 2.88 µM
  TGI: 11.8 µM
[32]
  GI50: 2.85 µM
  TGI: 9.45 µM
[33]
  GI50: 3.22 µM
  TGI: 14.2 µM
[34]
  GI50: 2.17 µM
  TGI: 5.52 µM
[35]
  GI50: 2.1 µM
  TGI: 6.72 µM
[36]
  GI50: 1.72 µM
  TGI: 3.58 µM
[37]
  GI50: 2.51 µM
  TGI: 8.75 µM
[38]
  GI50: 3.09 µM
  TGI: 10.1 µM
[39]
  GI50: 1.72 µM
  TGI: 5.17 µM
[40]
  GI50: 1.82 µM
  TGI: 4.16 µM
[41]
  GI50: 2.87 µM
  TGI: 14.3 µM
[42]
  GI50: 2.22 µM
  TGI: 10.7 µM
[43]
  GI50: 2.63 µM
  TGI: 10.2 µM
[44]
  GI50: 1.78 µM
  TGI: 3.53 µM
[45]
  GI50: 2.57 µM
  TGI: 8.7 µM
[46]
  GI50: 2.6 µM
  TGI: 8.58 µM
[47]
  GI50: 2.63 µM
  TGI: 7.84 µM
[48]
  GI50: 3.19 µM
  TGI: 14.7 µM
[49]
  GI50: 2.71 µM
  TGI: 12.5 µM
[50]
  GI50: 2.49 µM
  TGI: 8.44 µM
[51]
  GI50: 1.9 µM
  TGI: 4.27 µM
[52]
  GI50: 3.27 µM
  TGI: 11.9 µM
[53]
  GI50: 1.49 µM
  TGI: 6.31 µM
[54]
  GI50: 2.37 µM
  TGI: 49.5 µM
[55]
  GI50: 1.8 µM
  TGI: 3.44 µM
[56]
  GI50: 2.91 µM
  TGI: 12.6 µM
